# Publication PMC5225454, “A Comprehensive Evaluation of the Activity and Selectivity Profile of Ligands for RGD-binding Integrins” (Scientific Reports, 2017)
# Where “and” joins values, the source holds several entries; their conditions need not be identical. Identical values can stand only once. Like-named read-outs stand apart in the source and are kept apart here. Positions of bridges follow the written chain, without caps; N, C: chain ends. Non-standard residues stand in square brackets, D forms with d. Residues, ends and D or L forms follow the SMILES beside them. Groups on a side chain read outwards from the residue. *: point of attachment. X1 = O=C(COCC(=O)*)NCCOCCOCCOCCOCCOCCNC(=O)CO/N=C/c1ccc(F)cc1; X2 = NC(=O)COCC(=O)NCCOCCOCCOCCN*; dPhg = N[C@@H](C(=O)O)c1ccccc1; AEEA = NCCOCCOCC(=O)O; Mpa = O=C(O)CCS
# Tests used:
# [1] = target: T1, human αvβ3-integrin (Homo sapiens, UniProt P05106+P06756); assay: ELISA-like solid-phase binding assay, soluble integrin αvβ3 vs coated vitronectin; details: for IC50: coated vitronectin, soluble integrin, referenced to internal standard
# T1 construct: purchased R&D
# [2] = target: α5β1 integrin (Homo sapiens, UniProt P05556+P08648); assay: ELISA-like solid-phase binding assay, soluble integrin α5β1 vs coated fibronectin; parameters: purchased R&D
# [3] = target: T2, human platelet integrin αIIbβ3 (Homo sapiens, UniProt P05106+P08514); assay: ELISA-like solid-phase binding assay, soluble integrin αIIbβ3 vs coated fibrinogen; details: referenced to internal standard
# T2 construct: purchased VWR
# T2 sequence (P08514 32-1039): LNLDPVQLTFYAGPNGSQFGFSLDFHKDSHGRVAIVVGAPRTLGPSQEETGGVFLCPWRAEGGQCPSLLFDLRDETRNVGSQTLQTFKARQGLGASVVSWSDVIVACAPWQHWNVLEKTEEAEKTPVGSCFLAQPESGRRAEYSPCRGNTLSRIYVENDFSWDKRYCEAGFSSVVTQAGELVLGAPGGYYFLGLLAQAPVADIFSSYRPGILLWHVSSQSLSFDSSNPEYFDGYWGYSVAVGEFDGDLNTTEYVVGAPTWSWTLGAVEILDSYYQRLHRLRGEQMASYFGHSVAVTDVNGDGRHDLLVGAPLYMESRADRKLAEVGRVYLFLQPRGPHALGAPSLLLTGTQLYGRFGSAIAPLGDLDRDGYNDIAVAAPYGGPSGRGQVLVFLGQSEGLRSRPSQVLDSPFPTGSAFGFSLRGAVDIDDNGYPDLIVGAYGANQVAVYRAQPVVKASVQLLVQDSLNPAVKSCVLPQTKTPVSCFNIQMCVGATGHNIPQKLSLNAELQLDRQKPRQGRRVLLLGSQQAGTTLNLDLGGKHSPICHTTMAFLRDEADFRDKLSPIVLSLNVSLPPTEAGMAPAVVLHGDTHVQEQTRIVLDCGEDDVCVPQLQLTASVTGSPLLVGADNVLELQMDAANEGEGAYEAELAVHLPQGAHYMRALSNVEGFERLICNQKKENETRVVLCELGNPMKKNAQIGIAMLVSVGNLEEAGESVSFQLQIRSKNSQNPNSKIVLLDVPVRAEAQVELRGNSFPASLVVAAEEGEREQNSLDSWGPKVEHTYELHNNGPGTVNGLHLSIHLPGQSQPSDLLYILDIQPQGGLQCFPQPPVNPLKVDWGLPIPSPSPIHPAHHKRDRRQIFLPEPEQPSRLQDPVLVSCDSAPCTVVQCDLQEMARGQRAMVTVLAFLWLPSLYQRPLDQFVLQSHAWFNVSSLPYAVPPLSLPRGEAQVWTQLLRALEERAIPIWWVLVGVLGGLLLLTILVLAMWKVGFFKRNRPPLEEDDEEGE
# T2 sequence (P05106 27-788): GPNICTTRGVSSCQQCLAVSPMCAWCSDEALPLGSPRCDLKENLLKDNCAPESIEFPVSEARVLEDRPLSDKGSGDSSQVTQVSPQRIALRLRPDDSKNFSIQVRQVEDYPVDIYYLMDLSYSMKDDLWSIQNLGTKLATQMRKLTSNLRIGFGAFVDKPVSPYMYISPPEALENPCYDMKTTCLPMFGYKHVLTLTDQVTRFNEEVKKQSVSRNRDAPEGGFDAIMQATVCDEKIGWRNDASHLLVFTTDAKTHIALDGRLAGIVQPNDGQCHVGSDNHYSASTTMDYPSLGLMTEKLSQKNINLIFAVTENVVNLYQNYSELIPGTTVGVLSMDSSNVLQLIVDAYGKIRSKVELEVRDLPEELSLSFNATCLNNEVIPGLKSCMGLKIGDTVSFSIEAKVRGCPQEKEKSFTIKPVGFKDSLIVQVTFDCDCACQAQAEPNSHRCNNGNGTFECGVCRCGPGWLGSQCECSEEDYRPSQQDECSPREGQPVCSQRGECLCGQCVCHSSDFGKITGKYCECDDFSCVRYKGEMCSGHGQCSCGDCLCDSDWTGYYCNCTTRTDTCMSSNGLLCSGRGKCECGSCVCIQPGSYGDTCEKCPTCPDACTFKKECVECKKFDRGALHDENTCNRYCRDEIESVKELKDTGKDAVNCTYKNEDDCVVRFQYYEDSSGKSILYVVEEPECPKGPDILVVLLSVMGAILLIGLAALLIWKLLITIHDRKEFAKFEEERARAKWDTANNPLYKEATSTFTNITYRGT
# [4] = target: T3, human αvβ5-integrin (Homo sapiens, UniProt P06756+P18084); assay: ELISA-like solid-phase binding assay, soluble integrin αvβ5 vs coated vitronectin; details: referenced to internal standard
# T3 construct: purchased Millipore
# T3 sequence (P06756 31-1048): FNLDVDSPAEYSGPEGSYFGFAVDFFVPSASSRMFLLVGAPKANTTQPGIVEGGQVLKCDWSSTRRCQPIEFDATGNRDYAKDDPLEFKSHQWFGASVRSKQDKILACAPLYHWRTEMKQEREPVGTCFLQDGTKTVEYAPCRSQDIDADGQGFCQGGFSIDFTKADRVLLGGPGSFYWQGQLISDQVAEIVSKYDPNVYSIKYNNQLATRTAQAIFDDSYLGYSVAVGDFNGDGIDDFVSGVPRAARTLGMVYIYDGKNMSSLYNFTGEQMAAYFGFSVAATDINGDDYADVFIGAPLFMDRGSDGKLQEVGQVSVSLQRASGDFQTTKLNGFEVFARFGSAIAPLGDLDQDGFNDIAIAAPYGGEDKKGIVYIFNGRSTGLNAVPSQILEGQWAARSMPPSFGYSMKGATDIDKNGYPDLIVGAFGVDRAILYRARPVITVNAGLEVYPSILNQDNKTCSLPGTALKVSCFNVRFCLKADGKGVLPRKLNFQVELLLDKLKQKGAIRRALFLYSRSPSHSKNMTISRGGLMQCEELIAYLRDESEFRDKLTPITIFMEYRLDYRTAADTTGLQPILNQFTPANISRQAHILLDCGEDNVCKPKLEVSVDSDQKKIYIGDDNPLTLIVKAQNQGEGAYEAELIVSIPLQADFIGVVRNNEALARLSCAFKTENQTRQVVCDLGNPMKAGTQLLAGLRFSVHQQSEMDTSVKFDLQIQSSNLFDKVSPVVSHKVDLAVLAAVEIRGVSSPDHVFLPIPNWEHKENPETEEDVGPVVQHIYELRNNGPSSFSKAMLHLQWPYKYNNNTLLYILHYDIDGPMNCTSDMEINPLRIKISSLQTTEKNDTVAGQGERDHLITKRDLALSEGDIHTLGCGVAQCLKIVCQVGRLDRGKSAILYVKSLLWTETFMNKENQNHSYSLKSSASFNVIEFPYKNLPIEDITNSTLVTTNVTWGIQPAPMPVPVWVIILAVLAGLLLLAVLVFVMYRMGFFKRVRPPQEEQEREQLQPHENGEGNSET
# T3 sequence (P18084 24-799): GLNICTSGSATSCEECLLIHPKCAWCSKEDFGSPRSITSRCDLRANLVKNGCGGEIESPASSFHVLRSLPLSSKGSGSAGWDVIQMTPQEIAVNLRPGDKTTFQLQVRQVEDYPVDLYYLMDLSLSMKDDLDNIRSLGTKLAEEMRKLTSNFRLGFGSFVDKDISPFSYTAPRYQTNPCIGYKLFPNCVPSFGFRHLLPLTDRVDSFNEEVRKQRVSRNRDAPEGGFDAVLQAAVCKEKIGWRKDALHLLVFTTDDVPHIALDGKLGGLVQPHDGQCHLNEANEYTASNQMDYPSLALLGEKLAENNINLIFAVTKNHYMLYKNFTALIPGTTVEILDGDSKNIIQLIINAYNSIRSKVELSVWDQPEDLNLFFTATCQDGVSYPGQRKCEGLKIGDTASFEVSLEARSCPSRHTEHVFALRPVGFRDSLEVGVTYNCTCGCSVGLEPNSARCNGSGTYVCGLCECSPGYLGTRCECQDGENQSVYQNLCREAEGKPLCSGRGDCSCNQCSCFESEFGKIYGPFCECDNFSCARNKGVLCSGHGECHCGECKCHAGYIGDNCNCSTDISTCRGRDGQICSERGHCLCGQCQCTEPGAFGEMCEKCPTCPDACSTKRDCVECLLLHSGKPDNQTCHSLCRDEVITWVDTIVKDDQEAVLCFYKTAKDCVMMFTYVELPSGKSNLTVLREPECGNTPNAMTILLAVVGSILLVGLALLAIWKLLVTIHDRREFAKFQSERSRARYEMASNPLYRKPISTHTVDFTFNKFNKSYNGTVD
# [5] = target: T4, human αvβ8-Integrin (Homo sapiens, UniProt P06756+P26012); assay: ELISA-like solid-phase binding assay, soluble integrin αvβ8 vs coated LAP (TGF-β); details: referenced to internal standard
# T4 construct: purchased R&D
# [6] = target: T5, human αvβ6-Integrin (Homo sapiens, UniProt P06756+P18564); assay: ELISA-like solid-phase binding assay, soluble integrin αvβ6 vs coated LAP (TGF-β); details: for IC50: coated LAP, soluble integrin, referenced to internal standard
# T5 construct: purchased R&D
# [7] = coated fibronectin, soluble integrin, referenced to internal standard, read-out: IC50 α5β1
Compound,IC50 [1] [nM],"IC50 [2, 7] [nM]",IC50 [3] [nM],IC50 [4] [nM],IC50 [5] [nM],IC50 [6],IC50 [2] [nM],fold change of α5β1 IC50-value after functionalization ([2]; versus c(phgisoDGRk)) [fold],fold change of αvβ6 IC50-value after functionalization ([6]; versus c(phgisoDGRk)) [fold],IC50 αIIbβ3 [3],IC50 αvβ8 [5],fold change of αvβ3 IC50-value after functionalization ([1]; versus targeting unit NC100717) [fold]
Cc1ccnc(NCCCC(=O)NCC(=O)NC(CC(=O)O)c2ccc(-c3cccc4ccccc34)cc2)c1 (centres unmarked) [Mol11*],13.2 ± 0.5,3020 ± 410,> 10000,530 ± 49,18.5 ± 4.3,1.3 nM and 1.32 nM,–,–,–,–,–,–
N=C(N)NCCC[C@@H]1NC(=O)CNC(=O)C[C@@H](C(=O)O)NC(=O)[C@@H](c2ccccc2)NC(=O)[C@@H](CCCCN)NC1=O [c(phgisoDGRk)] (GR[dK][dPhg]D-OH; lactam N-5),> 10000,9.43 ± 1.33,> 10000,> 10000,77 ± 6,18 ± 2.5 nM,–,–,–,–,–,–
"N=C(N)c1ccc(N2CCN(C3CCN(CC(=O)O)CC3)CC2)cc1 [GR144053, 4-[4-[4-(aminoiminomethyl)phenyl]-1-piperazinyl]-1-piperidineacetic acid]",> 10000,> 10000,18 ± 2.2,> 10000,> 10000,> 10000 nM,–,–,–,–,–,–
C[C@@H](O)[C@H](NC(=O)[C@H](CC(=O)O)NC(=O)CNC(=O)[C@H](CCCNC(=N)N)NC(=O)CN)C(=O)N1CCC[C@H]1C(=O)O [GRGDTP] (H-GRGDTP-OH),28 ± 5,84 ± 12,> 10000,423 ± 65,> 10000,> 10000 nM,–,–,–,–,–,–
NC(N)=NCCC[C@H](N)C(=O)NCC(=O)N[C@@H](CC(=O)O)C(=O)N[C@@H](CO)C(=O)O [RGDS],45 ± 5,181 ± 23,–,433 ± 34,> 10000,> 10000 nM,–,–,–,–,–,–
Echistatin,0.46 ± 0.14,0.57 ± 0.19,0.9 ± 0.24,1.4 ± 0.2,12.8 ± 2.5,–,–,–,–,–,–,–
N=C(N)NCCC[C@H](NC(=O)CN)C(=O)NCC(=O)N[C@@H](CC(=O)O)C(=O)N[C@@H](CO)C(=O)O [GRGDS],–,77 ± 8,–,–,–,–,–,–,–,–,–,–
N=C(N)NCCC[C@H](NC(=O)CN)C(=O)NCC(=O)N[C@@H](CC(=O)O)C(=O)O [GRGD] (H-GRGD-OH),55 ± 7,137 ± 14,> 10000,580 ± 23,> 10000,> 10000 nM,–,–,–,–,–,–
"CC(=O)N1CCC[C@H]1C(=O)N[C@@H](Cc1c[nH]cn1)C(=O)N[C@@H](CO)C(=O)N[C@@H](CS)C(=O)N[C@@H](CC(N)=O)C(N)=O [ATN161, Ac-PHSCN-NH2] (Ac-PHSCN-NH2)",> 10000,4.2 ± 0.5,> 10000,> 10000,> 10000,3130 ± 591 nM,–,–,–,–,–,–
NCCCC[C@H](NC(=O)[C@@H]1CCCN1C(=O)[C@H](CO)NC(=O)[C@H](CC(=O)O)NC(=O)CNC(=O)[C@H](CCCN=C(N)N)NC(=O)CN)C(=O)O [GRGDSPK],12.2 ± 0.1,66 ± 6,> 10000,201 ± 32,> 10000,1030 ± 242 nM,–,–,–,–,–,–
CC(C)C[C@H](NC(=O)[C@H](CO)NC(=O)[C@H](CC(=O)O)NC(=O)[C@H](CC(C)C)NC(=O)[C@H](CC(=O)O)NC(=O)[C@@H](NC(=O)[C@@H](N)CCCNC(=N)N)[C@@H](C)O)C(=O)N[C@@H](CCCNC(=N)N)C(=O)N[C@H](C(=O)O)[C@@H](C)O,6230 ± 540,> 10000,> 10000,> 10000,320 ± 25,–,–,–,–,–,–,–
N=C(N)NCCC[C@@H]1NC(=O)[C@H](CCCCN)NC(=O)[C@@H](Cc2ccccc2)NC(=O)[C@H](CC(=O)O)NC(=O)CNC1=O [c(RGDfK)],–,141 ± 15,> 10000,340 ± 24,5200 ± 670,–,–,–,–,–,–,–
N=C(N)NCCC[C@H](NC(=O)CN)C(=O)NCC(=O)N[C@@H](CC(=O)O)C(=O)N[C@@H](CC(N)=O)C(=O)N1CCC[C@H]1C(=O)O [GRGDNP] (H-GRGDNP-OH),45 ± 12,34 ± 3,> 10000,506 ± 120,> 10000,> 10000 nM,–,–,–,–,–,–
N=C(N)NCCC[C@@H]1NC(=O)[C@H](CCCCNC(=O)CCOCCOCCOCCOCCOCCOCCNC(=O)CCS)NC(=O)[C@@H](Cc2ccccc2)NC(=O)[C@H](CC(=O)O)NC(=O)CNC1=O [c(RGDfK)-Peg-MPA],15 ± 1.8,201 ± 31,> 10000,390 ± 53,> 10000,422 ± 44 nM,–,–,–,–,–,–
CC(C)C[C@H](NC(=O)[C@H](CC(=O)O)NC(=O)CNC(=O)[C@H](CCCNC(=N)N)NC(=O)[C@H](CC(C)C)NC(=O)[C@H](CC(N)=O)NC(=O)[C@@H]1CCCN1C(=O)[C@@H](NC(=O)[C@H](C)NC(=O)[C@@H](N)CC(N)=O)C(C)C)C(=O)N[C@@H](CCC(N)=O)C(=O)N[C@H](C(=O)N[C@@H](CC(C)C)C(=O)N[C@@H](C)C(=O)N[C@@H](CCC(N)=O)C(=O)N[C@@H](CCCCN)C(=O)N[C@H](C(=O)N[C@@H](C)C(=O)N[C@@H](CCCNC(=N)N)C(=O)N[C@H](C(=O)O)[C@@H](C)O)C(C)C)C(C)C [A20FMDV2],–,–,–,–,–,–,> 10000,–,–,–,–,–
N=C(N)NCCC[C@@H]1NC(=O)CNC(=O)C[C@@H](C(=O)O)NC(=O)[C@@H](c2ccccc2)NC(=O)[C@@H](CCCCNC(=O)COCCOCCNC(=O)CCS)NC1=O [c(phgisoDGRk)-Peg-MPA] (GR[dK]([AEEA-Mpa])[dPhg]D-OH; lactam N-5),> 10000,31 ± 3.4,> 10000,> 10000,> 10000,52 ± 4.8 nM,–,2,2,–,–,–
"C[C@H](N)C(=O)N[C@H]1CSSC[C@@H](C(=O)NCC(=O)O)NC(=O)[C@H](Cc2ccccc2)NC(=O)[C@@H]2CSSC[C@H](NC(=O)[C@H](CC(=O)O)NC1=O)C(=O)N[C@@H](CCCNC(=N)N)C(=O)NCC(=O)N[C@@H](CC(=O)O)C(=O)N2 [RGD-4C] (H-ACDCRGDCFCG-OH; disulfide 2-10, 4-8)",8.3 ± 2.1,244 ± 37,> 10000,46 ± 11,> 10000,380 ± 44 nM,–,–,–,no affinity,no affinity,–
CCCCS(=O)(=O)N[C@@H](Cc1ccc(OCCCCC2CCNCC2)cc1)C(=O)O [Tirofiban],> 10000,> 10000,–,> 10000,> 10000,> 10000 nM,–,–,–,–,–,–
N=C(N)NCCC[C@@H]1NC(=O)[C@@H]2CSSC[C@H](NC(=O)[C@H](CC(=O)O)NC(=O)CNC1=O)C(=O)N[C@@H](Cc1ccccc1)C(=O)N[C@H](C(=O)NCCOCCOCCOCCNC(=O)COCC(N)=O)CSCC(=O)N[C@@H](CCCCNC(=O)COCC(=O)NCCOCCOCCOCCOCCOCCNC(=O)CO/N=C/c1ccc(F)cc1)C(=O)N2 [Flucilatide] ({CH2CO}-K(X1)CRGDCFC-X2; disulfide 2-6; thioether N-8; N-terminus and C-terminus assumed),–,–,–,–,–,–,–,–,–,–,–,3
N=C(N)NCCC[C@@H]1NC(=O)[C@H](CS)NC(=O)[C@@H](Cc2ccccc2)NC(=O)[C@H](CC(=O)O)NC(=O)CNC1=O [c(RGDfC)] (cyclo(RGD[dF]C)),6.3 ± 0.5,215 ± 55,> 10000,433 ± 23,> 10000,121 ± 10 nM,–,–,–,–,–,–
N=C(N)NCCC[C@H](N)C(=O)NCC(=O)N[C@@H](CC(=O)O)C(=O)O [RGD],89 ± 12,–,> 10000,440 ± 65,> 10000,> 10000 nM,–,–,–,–,–,–
N=C(N)NCCC[C@@H]1NC(=O)[C@@H]2CSSC[C@H](NC(=O)[C@H](CC(=O)O)NC(=O)CNC1=O)C(=O)N[C@@H](Cc1ccccc1)C(=O)N[C@H](C(=O)NCCOCCOCCOCCNC(=O)COCC(N)=O)CSCC(=O)N[C@@H](CCCCN)C(=O)N2 [NC100717] ({CH2CO}-KCRGDCFC-X2; disulfide 2-6; thioether N-8; N-terminus and C-terminus assumed),1.1 ± 0.1,820 ± 156,> 10000,16.7 ± 2.1,> 10000,> 10000 nM,–,–,–,–,–,–
N=C(N)NCCC[C@@H]1NC(=O)[C@H](CCCCN)NC(=O)[C@@H](Cc2ccc(O)cc2)NC(=O)[C@H](CC(=O)O)NC(=O)CNC1=O [c(RGDyK)],–,236 ± 45,–,–,> 10000,–,–,–,–,–,–,–
